This is an account of results in patent publication US5534497A, “Technetium chelates to be used for determining the renal function” (Mallinckrodt Medical, Inc., priority 1986, dated 1996).

A short description of data set [1]: Biodistribution in mice by organ uptake measurements, relative to Tc99m-MAG3 (iodo-131-Hippuran as reference standard). In kind it is in vivo. To be noted: for Blood: ratio of uptake of compound to uptake of Tc99m-MAG3 / Hepatic (system): ratio of uptake of compound to uptake of Tc99m-MAG3 / Intestines: ratio of uptake of compound to uptake of Tc99m-MAG3 / Kidneys: ratio of uptake of compound to uptake of Tc99m-MAG3 / Liver: ratio of uptake of compound to uptake of Tc99m-MAG3 / Remainder / Rest of the body: ratio of uptake of compound to uptake of Tc99m-MAG3 / Renal (system): ratio of uptake of compound to uptake of Tc99m-MAG3 / Stomach: ratio of uptake of compound to uptake of Tc99m-MAG3 / Urine: ratio of uptake of compound to uptake of Tc99m-MAG3: intravenous, 10 minutes after administration, each normalised to iodo-131-Hippuran; for Secretion characteristics / organ distribution compared with Tc99m-MAG3 (in words): secretion in urine, retention in kidneys, liver, intestines. How it is done:
Tc99m-MAGAG-DA, separated by HPLC, is diluted with physiological saline solution to a concentration of 370 kilobecquerel per mi. Iodo-131-Hippuran is added to this solution as a reference standard. An amount of 0.1 ml of this mixture is injected intravenously into each of the eight mice, so that 37 kilobecquerel of Tc99m-MAGAG-DA and 18.5 kilobecquerel of iodo-131-Hippuran are injected per animal. Measures are taken to collect all the excreted urine. 10 Minutes after the administration the mice are sacrificed. It is ensured that all the blood is collected. All parts of the body are brought in separate tubes and the activity of Tc99m and I131 is determined for each part of the body. From the measured results the relative quantity of both tracer products in urine, kidneys, intestines. liver, blood and the collective remainder of the body is computed. In the same manner, Tc99m-MAGA-DB, separated by HPLC, and Tc99m-mercaptoacetylglycylglycylglycine (Tc99m-MAG3), purified by HPLC, both with iodo-131-Hippuran as a reference standard, are tested in two other groups of 8 and 6 mice, respectively. For all three Tc99m-labelled compounds -- MAGAG-DA, MAGAG-DB and MAG3 -- the relative percentages of Tc99m activity in the various organs are calculated with respect to iodo-131-Hippuran. After this, the ratios of Tc99m-MAGAG-DA and -DB can be calculated with respect to Tc99m-MAG3 in the various organs.
In the same ray as described in Example III the biodistribution of the above compound in mice is determined relative to that of Tc99m-MAG3 by organ uptake measurements.
In the same way as described in Example III the biodistribution of the above compound in mice is determined relative to that of Tc99m-MAG3 by organ uptake measurements.

The conditions of data set [2]: background statement; cited from earlier work.
For data set [3] the following is noted: glomerular filtration about 125 ml per minute, total renal clearance 600 to 700 ml per minute; cited from earlier work.

Regarding “Tc99m-mercaptoacetylglycyl-D-alanylglycine [Tc99m-MAGAG-DA]”, in data set [1], the “Blood: ratio of uptake of compound to uptake of Tc99m-MAG3” value (shortened to “Blood: ratio of uptake of compound”) was 1.12, the “Hepatic (system): ratio of uptake of compound to uptake of Tc99m-MAG3” value (“Hepatic (system): ratio” below) is 0.60, the “Intestines: ratio of uptake of compound to uptake of Tc99m-MAG3” value (shortened to “Intestines: ratio of uptake of compound”) was determined as 0.44 and the “Kidneys: ratio of uptake of compound to uptake of Tc99m-MAG3” value (“Kidneys: ratio of uptake of compound” for short) was found to be 0.36. Moreover, in data set [1], the “Liver: ratio of uptake of compound to uptake of Tc99m-MAG3” value (“Liver: ratio of uptake of compound” for short) is listed as 0.68, the “Remainder / Rest of the body: ratio of uptake of compound to uptake of Tc99m-MAG3” value turned out to be 0.90, the “Renal (system): ratio of uptake of compound to uptake of Tc99m-MAG3” value (shortened to “Renal (system): ratio”) is reported as 1.05 and the “Stomach: ratio of uptake of compound to uptake of Tc99m-MAG3” value (shortened to “Stomach: ratio of uptake of compound”) came to 0.83. In data set [1], the “Urine: ratio of uptake of compound to uptake of Tc99m-MAG3” value (from here on “Urine: ratio of uptake of compound”) is given as 1.13 and the “Secretion characteristics / organ distribution compared with Tc99m-MAG3 (in words)” value is on record as “significantly better than those of Tc99m-MAG3”.
Turning to `O=C([O-])CNC(=O)c1ccccc1[131I].[Na+]` [iodo-131-Hippuran], in data set [2], the “Secretion by the kidneys (in words)” value is “secreted actively tubularly”.
Turning to “Tc99m-mercaptoacetylglycylglycylglycine [Tc99m-MAG3]”, the “Secretion by the kidneys (in words)” value in data set [2] was “secreted by the kidneys selectively and slightly faster than iodo-Hippuran”.
Turning to “Tc99m-mercaptoacetylglycyl-D-alanylglycine [Tc99m-MAGAG-DB]”, in data set [1], the “Blood: ratio of uptake of compound” value stood at 1.20, the “Hepatic (system): ratio” value is 0.59, the “Intestines: ratio of uptake of compound” value was found to be 0.41 and the “Kidneys: ratio of uptake of compound” value is on record as 0.37. In data set [1], the “Liver: ratio of uptake of compound” value came out at 0.68, the “Remainder / Rest of the body: ratio of uptake of compound to uptake of Tc99m-MAG3” value was found to be 0.94, the “Renal (system): ratio” value turned out to be 1.07 and the “Stomach: ratio of uptake of compound” value was 0.85. In data set [1], the “Urine: ratio of uptake of compound” value is 1.14 and the “Secretion characteristics / organ distribution compared with Tc99m-MAG3 (in words)” value is given as “significantly better than those of Tc99m-MAG3”.
As for `O=C([O-])CN(CCN(CC(=O)[O-])CC(=O)[O-])CCN(CC(=O)[O-])CC(=O)[O-].[99Tc+4]` [chelate of DTPA, Tc99m-diethylene triamine pentascetic acid], in data set [3], the clearance is on record as 100 ml of blood plasma per minute.
Consider “Tc99m-mercaptoacetyl-D-alanylglycylglycine [Tc99m-MAAG2-DB]”, for which, in data set [1], the “Blood: ratio of uptake of compound” value worked out at 1.17, the “Hepatic (system): ratio” value came to 0.84, the “Intestines: ratio of uptake of compound” value was 0.95 and the “Kidneys: ratio of uptake of compound” value turned out to be 0.66. Besides, in data set [1], the “Liver: ratio of uptake of compound” value stood at 0.79, the “Remainder / Rest of the body: ratio of uptake of compound to uptake of Tc99m-MAG3” value turned out to be 1.45, the “Renal (system): ratio” value was 0.96 and the “Stomach: ratio of uptake of compound” value was 1.40. For the same compound, in data set [1], the “Urine: ratio of uptake of compound” value was 0.99 and the “Secretion characteristics / organ distribution compared with Tc99m-MAG3 (in words)” value is given as “more favourable organ distribution than Tc99m-MAG3”.
